Where a name gives a salt, the structure may show the parent alone.
Key:
[1] = biological target: T1, αVβ3 integrin (293-β3 cells) (Homo sapiens, UniProt P05106+P06756); test: 293-β3 cell adhesion assay (adhesion to immobilized vitronectin); type: cell-based; settings: 200 uM Mn2+, read-out: 293-β3 (IC50 <10 μM)
T1 construct: expressed in transfected cells; host or cells: 293 human embryonic kidney cells (293-β3)
Excerpt: While the β3 subunit of αVβ3 is only known to complex with αV or αIIb, the αV subunit complexes with multiple β subunits. The three αV integrins most homologous with αVβ3 are αVβ1, αVβ5 and αVβ6, with 43%, 56% and 47% amino acid identity in the β subunits, respectively. To evaluate the selectivity of compounds between the integrins αVβ3 and αVβ6, cell-based assays were established using the 293 human embryonic kidney cell line. 293 cells express αVβ1, but little to no detectable αVβ3 or αVβ6. cDNAs for β3 and β6 were transfected separately into 293 cells to generate 293-β3 and 293-β6 cells, respectively. High surface expression of αVβ3 and αVβ6 was confirmed by flow cytometry. Conditions were established for each cell line in which cell adhesion to immobilized human vitronectin was mediated by the appropriate integrin, as determined by a panel of integrin-specific, neutralizing monoclonal antibodies. Briefly, cells were incubated with inhibitor in the presence of 200 uM Mn^2+, allowed to adhere to immobilized vitronectin, washed, and adherent cells are detected endogenous alkaline phosphatase and para-nitrophenyl phosphate. An 8-point dose-response curve using either 10-fold or 3-fold dilutions of compound was evaluated by fitting a four-parameter logistic, nonlinear model (using SAS).

[2] = biological target: T2, Human fibrinogen receptor (IIb/IIIa) (Homo sapiens, UniProt P05106+P08514); test: Purified IIb/IIIa receptor assay (solid phase receptor assay, SPRA); type: binding; settings: selectivity ratio: IC50 αIIbβ3 (solid phase receptor assay) over IC50 β3
T2 construct: Human fibrinogen receptor (IIb/IIIa) was purified from outdated platelets; from tissue; host or cells: outdated human platelets
Excerpt: Human fibrinogen receptor (IIb/IIIa) was purified from outdated platelets. (Pytela, R., Pierschbacher, M. D., Argraves, S., Suzuki, S., and Rouslahti, E. “Arginine-Glycine-Aspartic acid adhesion receptors”, Methods in Enzymology 144(1987):475-489.) Human vitronectin was purified from fresh frozen plasma as described in Yatohgo, T., Izumi, M., Kashiwagi, H., and Hayashi, M., “Novel purification of vitronectin from human plasma by heparin affinity chromatography,” Cell Structure and Function 13(1988):281-292. Biotinylated human vitronectin was prepared by coupling NHS-biotin from Pierce Chemical Company (Rockford, IL) to purified vitronectin as previously described. (Charo, I. F., Nannizzi, L., Phillips, D. R., Hsu, M. A., Scarborough, R. M., “Inhibition of fibrinogen binding to GP IIb/IIIa by a GP IIIa peptide”, J. Biol. Chem. 266(3)(1991): 1415-1421.) Assay buffer, OPD substrate tablets, and RIA grade BSA were obtained from Sigma (St. Louis, Mo.). Anti-biotin antibody was obtained from Sigma (St. Louis, Mo.). Nalge Nunc-Immuno microtiter plates were obtained from (Rochester, N.Y.). ADP reagent was obtained from Sigma (St. Louis, Mo.).
This assay is essentially the same reported in Niiya, K., Hodson, E., Bader, R., Byers-Ward, V. Koziol, J. A., Plow, E. F. and Ruggeri, Z. M., “Increased surface expression of the membrane glycoprotein IIb/IIIa complex induced by platelet activation: Relationships to the binding of fibrinogen and platelet aggregation”, Blood 70(1987):475-483. The purified human fibrinogen receptor (IIb/IIIa) was diluted from stock solutions to 1.0 μg/mL in Tris-buffered saline containing 1.0 mM Ca^++, Mg^++, and Mn^++, pH 7.4 (TBS^+++). The diluted receptor was immediately transferred to Nalge Nunc-Immuno microtiter plates at 100 μL/well (100 ng receptor/well). The plates were sealed and incubated overnight at 4° C. to allow the receptors to bind to the wells. All remaining steps were at room temperature. The assay plates were emptied and 200 μL of 1% RIA grade BSA in TBS^+++ (TBS^+++/BSA) were added to block exposed plastic surfaces. Following a 2 hour incubation, the assay plates were washed with TBS^+++ using a 96 well plate washer. Logarithmic serial dilution of the test compound and controls were made starting at a stock concentration of […] and using 2 nM biotinylated vitronectin in TBS^+++/BSA as the diluent. This premixing of labeled ligand with test (or control) ligand, and subsequent transfer of 50 μL aliquots to the assay plate was carried out with a CETUS Propette robot; the final concentration of the labeled ligand was 1 nM and the highest concentration of test compound was 1.0×10^−4 M. The competition occurred for two hours after which all wells were washed with a plate washer as before. Affinity purified horseradish peroxidase labeled goat anti-biotin antibody was diluted 1:2000 in TBS^+++/BSA and 125 μL were added to each well. After 45 minutes, the plates were washed and incubated with […] substrate in 100 mM/L citrate buffer, pH 5.0. The plate was read with a microtiter plate reader at a wavelength of 450 nm and when the maximum-binding control wells reached an absorbance of about 1.0, the final A450 were recorded for analysis. The data were analyzed using a macro written for use with the EXCELJ spreadsheet program. The mean, standard deviation, and %CV were determined for duplicate concentrations. The mean A450 values were normalized to the mean of four maximum-binding controls (no competitor added)(B-MAX). The normalized values were subjected to a four parameter curve fit algorithm, [Robard et al., Int.

[3] = biological target: T3, αVβ6 (HT-29 human colon carcinoma cells) (Homo sapiens, UniProt P06756+P18564); test: HT-29 cell adhesion assay (adhesion to immobilized LAP); type: cell-based; settings: selectivity ratio: IC50 αVβ6 (HT-29) over IC50 β3
T3 construct: endogenous in cells; host or cells: HT-29 human colon carcinoma cells
Experimental: To evaluate compound potency for membrane-bound αVβ6 an additional cell-based adhesion assay was established using the HT-29 human colon carcinoma cell line. High surface expression of αVβ6 on HT-29 cells was confirmed by flow cytometry. Conditions were established in which cell adhesion to immobilized human latency associated peptide (LAP) was mediated by the αVβ6, as determined by a panel of integrin-specific, neutralizing monoclonal antibodies. Briefly, cells were incubated with inhibitor in the presence of 200 uM Mn^2+, allowed to adhere to immobilized LAP, washed, and adherent cells are detected by quantifying endogenous alkaline phosphatase using para-nitrophenyl phosphate. An 8-point dose-response curve using either 10-fold or 3-fold dilutions of compound was evaluated by fitting a four-parameter logistic, nonlinear model (using SAS). The compounds evaluated were relatively ineffective at inhibition of αVβ6-mediated cell adhesion. The selective antagonism of the αVβ3 integrin is viewed as desirable in this class of compounds, as αVβ6 may also play a role in normal physiological processes of tissue repair and cellular turnover that routinely occur in the skin and pulmonary tissues.

T1 sequence (P06756 31-889 limits assumed): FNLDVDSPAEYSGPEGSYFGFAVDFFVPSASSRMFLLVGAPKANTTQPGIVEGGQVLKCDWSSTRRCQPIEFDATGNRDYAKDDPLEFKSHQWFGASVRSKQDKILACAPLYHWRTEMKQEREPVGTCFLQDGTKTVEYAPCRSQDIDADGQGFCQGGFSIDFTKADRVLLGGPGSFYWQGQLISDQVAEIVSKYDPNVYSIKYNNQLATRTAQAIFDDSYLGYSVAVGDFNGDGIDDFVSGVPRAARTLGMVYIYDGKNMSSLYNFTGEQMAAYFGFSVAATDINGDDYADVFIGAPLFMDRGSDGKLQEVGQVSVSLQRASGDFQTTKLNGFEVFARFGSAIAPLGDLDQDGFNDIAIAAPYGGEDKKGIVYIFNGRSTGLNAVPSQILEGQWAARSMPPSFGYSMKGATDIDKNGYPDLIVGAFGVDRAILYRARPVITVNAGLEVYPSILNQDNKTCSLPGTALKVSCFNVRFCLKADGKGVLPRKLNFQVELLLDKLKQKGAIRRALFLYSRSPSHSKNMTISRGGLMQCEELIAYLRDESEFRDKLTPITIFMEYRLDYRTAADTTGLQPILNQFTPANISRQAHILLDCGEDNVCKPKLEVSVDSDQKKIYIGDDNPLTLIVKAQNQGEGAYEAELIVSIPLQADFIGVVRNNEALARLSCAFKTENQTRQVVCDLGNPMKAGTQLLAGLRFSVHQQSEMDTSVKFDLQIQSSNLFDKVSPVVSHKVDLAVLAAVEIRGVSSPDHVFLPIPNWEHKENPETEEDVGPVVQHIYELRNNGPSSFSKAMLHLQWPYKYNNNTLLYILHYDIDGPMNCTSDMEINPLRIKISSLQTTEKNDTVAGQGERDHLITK
T1 sequence (P06756 891-1048 partner limits assumed): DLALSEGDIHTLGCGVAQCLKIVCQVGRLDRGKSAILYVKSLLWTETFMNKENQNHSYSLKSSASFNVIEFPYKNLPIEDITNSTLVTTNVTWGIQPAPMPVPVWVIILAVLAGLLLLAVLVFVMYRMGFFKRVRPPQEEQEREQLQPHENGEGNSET
T1 sequence (P05106 27-788): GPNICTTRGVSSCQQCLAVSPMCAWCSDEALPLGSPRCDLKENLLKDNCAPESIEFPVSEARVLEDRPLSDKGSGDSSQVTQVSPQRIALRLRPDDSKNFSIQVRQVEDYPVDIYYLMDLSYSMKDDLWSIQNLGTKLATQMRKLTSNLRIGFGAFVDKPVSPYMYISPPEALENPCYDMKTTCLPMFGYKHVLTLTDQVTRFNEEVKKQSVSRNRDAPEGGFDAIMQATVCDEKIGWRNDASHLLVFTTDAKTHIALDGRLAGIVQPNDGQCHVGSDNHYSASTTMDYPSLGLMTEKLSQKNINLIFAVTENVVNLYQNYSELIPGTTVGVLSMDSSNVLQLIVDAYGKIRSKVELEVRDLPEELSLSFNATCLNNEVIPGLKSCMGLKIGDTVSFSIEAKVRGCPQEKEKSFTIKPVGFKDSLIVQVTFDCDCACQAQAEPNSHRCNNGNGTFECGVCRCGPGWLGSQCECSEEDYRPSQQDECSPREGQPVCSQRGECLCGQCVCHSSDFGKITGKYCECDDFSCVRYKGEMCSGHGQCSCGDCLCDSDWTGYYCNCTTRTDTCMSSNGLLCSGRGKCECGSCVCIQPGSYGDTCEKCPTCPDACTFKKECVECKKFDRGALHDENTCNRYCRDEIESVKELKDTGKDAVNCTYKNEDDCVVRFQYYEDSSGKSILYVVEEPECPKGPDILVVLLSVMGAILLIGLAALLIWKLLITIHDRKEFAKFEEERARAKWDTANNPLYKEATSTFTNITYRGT
T3 sequence (P06756 31-889 limits assumed): as the sequence (P06756 31-889 limits assumed) above
T3 sequence (P06756 891-1048 partner limits assumed): as the sequence (P06756 891-1048 partner limits assumed) above
T3 sequence (P18564 22-788): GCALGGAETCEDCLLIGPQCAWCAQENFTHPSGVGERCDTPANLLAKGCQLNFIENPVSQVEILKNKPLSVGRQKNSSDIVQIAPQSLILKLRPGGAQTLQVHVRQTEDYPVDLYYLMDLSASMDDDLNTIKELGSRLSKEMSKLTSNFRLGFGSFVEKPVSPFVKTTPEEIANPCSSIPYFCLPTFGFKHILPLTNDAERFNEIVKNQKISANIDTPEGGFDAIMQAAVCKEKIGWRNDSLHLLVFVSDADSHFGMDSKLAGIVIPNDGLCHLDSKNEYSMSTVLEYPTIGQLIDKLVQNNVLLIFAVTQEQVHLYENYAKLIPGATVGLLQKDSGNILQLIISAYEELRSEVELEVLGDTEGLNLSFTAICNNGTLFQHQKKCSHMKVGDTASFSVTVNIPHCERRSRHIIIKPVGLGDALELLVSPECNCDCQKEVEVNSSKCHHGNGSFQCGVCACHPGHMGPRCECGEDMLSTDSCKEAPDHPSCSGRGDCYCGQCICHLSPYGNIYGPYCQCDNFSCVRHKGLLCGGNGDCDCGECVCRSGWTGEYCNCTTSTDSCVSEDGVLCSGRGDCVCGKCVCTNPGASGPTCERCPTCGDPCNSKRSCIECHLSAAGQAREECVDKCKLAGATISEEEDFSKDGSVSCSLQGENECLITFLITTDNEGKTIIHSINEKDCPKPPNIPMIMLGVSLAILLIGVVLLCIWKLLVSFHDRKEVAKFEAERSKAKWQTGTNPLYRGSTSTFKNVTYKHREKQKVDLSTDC
T2 sequence (P08514 32-887 limits assumed): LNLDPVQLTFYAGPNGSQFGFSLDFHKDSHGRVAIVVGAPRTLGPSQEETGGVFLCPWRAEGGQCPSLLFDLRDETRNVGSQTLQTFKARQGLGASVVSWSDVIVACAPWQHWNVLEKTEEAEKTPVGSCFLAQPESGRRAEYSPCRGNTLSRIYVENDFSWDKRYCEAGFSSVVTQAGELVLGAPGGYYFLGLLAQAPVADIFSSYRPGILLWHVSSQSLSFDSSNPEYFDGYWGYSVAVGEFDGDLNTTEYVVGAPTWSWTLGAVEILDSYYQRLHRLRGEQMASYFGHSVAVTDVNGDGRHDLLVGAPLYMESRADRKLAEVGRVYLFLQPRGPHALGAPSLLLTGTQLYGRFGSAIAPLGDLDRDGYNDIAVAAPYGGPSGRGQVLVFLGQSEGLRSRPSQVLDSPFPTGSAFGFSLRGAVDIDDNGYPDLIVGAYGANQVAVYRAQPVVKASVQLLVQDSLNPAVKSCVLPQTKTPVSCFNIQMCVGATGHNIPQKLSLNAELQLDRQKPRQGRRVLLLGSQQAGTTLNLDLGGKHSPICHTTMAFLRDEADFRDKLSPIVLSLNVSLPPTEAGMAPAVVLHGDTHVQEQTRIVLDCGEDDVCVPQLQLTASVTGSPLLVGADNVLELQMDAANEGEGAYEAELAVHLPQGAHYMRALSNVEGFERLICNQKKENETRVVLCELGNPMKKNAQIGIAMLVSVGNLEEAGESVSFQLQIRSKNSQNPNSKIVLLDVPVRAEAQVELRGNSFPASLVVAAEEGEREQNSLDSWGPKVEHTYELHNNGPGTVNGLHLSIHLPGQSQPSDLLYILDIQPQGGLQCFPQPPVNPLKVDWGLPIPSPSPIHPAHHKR
T2 sequence (P08514 891-1039 partner limits assumed): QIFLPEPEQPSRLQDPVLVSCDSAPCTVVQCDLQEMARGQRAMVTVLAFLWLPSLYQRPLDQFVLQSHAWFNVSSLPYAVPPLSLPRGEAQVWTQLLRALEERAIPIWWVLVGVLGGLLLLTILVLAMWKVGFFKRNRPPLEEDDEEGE
T2 sequence (P05106 27-788): as the sequence (P05106 27-788) above

IC50 [1] [µM] | SPRA AIIbB3 Selectivity* IIbIIIa/β3 [2] | HT-29 β-6 Selectivity* (β6/β3) [3] | Structure (SMILES)
< 10 | ++ (Selectivity Ratio of 10-100 ++) | ++ (Selectivity Ratio of 10-100 ++) | O=C(O)CC1(Cc2nc(CCCCNc3ccccn3)no2)CCCCC1 [Example 37, [1-({3-[4-(pyridin-2-ylamino)butyl]-1,2,4-oxadiazol-5-yl}methyl)cyclohexyl]-acetic acid]
< 10 | +++ (Selectivity Ratio >100 +++) | +++ (Selectivity Ratio >100 +++) | O=C(O)CC(Cc1nc(CCCc2ccc3c(n2)NCCC3)no1)c1ccccc1 (stereo not drawn) [Example 34, 3-phenyl-4-{3-[3-(5,6,7,8-tetrahydro-1,8-naphthyridin-2-yl)propyl]-1,2,4-oxadiazol-5-yl}butanoic acid trifluoroacetate]
< 10 | +++ (Selectivity Ratio >100 +++) | +++ (Selectivity Ratio >100 +++) | CC(CC(=O)O)(Cc1nc(CCCc2ccc3c(n2)NCCC3)no1)c1cccnc1 (stereo not drawn) [Example 51, 3-Methyl-3-pyridin-3-yl-4-{3-[3-(5,6,7,8-tetrahydro-[1,8]naphthyridin-2-yl)-propyl]-[1,2,4]oxadiazol-5-yl}-butyric acid]
< 10 | +++ (Selectivity Ratio >100 +++) | +++ (Selectivity Ratio >100 +++) | O=C(O)C(F)(F)F.O=C(O)CC(Cc1nc(CCCCNc2ccccn2)no1)c1cccc(C(F)(F)F)c1 (stereo not drawn) [Example 29, 4-{3-[4-(pyridin-2-ylamino)butyl]-1,2,4-oxadiazol-5-yl}-3-[3-(trifluoromethyl)-phenyl]butanoic acid]
< 10 | +++ (Selectivity Ratio >100 +++) | +++ (Selectivity Ratio >100 +++) | CC(CC(=O)O)(Cc1nc(CCCc2ccc3c(n2)NCCC3)no1)c1ccccc1 (stereo not drawn) [Example 47, 3-Methyl-3-phenyl-4-{3-[3-(5,6,7,8-tetrahydro-[1,8]naphthyridin-2-yl)-propyl]-[1,2,4]oxadiazol-5-yl}-butyric acid]
< 10 | +++ (Selectivity Ratio >100 +++) | +++ (Selectivity Ratio >100 +++) | CCCC(C)(CC(=O)O)Cc1nc(CCCc2ccc3c(n2)NCCC3)no1 (stereo not drawn) [Example 44, 3-Methyl-3-{3-[3-(5,6,7,8-tetrahydro-[1,8]naphthyridin-2-yl)-propyl]-[1,2,4]oxadiazol-5-ylmethyl}-hexanoic acid]

Further lines, the molecule ahead of its results:

Structure (SMILES) | IC50 [1] [µM] | SPRA AIIbB3 Selectivity* IIbIIIa/β3 [2] | HT-29 β-6 Selectivity* (β6/β3) [3]
CCCC(C)(CC(=O)O)Cc1nc(CCCCNc2ccccn2)no1 (stereo not drawn) [Example 38, 3-methyl-3-({3-[4-(pyridin-2-ylamino)butyl]-1,2,4-oxadiazol-5-yl}methyl)-hexanoic acid] | < 10 | +++ (Selectivity Ratio >100 +++) | +++ (Selectivity Ratio >100 +++)
O=C(O)C(F)(F)F.O=C(O)CC(Cc1nc(CCCc2ccc3c(n2)NCCC3)no1)c1cccnc1 (stereo not drawn) [Example 32, 3-pyridin-3-yl-4-{3-[3-(5,6,7,8-tetrahydro-1,8-naphthyridin-2-yl)propyl]-1,2,4-oxadiazol-5-yl}butanoic acid] | < 10 | +++ (Selectivity Ratio >100 +++) | +++ (Selectivity Ratio >100 +++)
O=C(O)C(F)(F)F.O=C(O)CC1(Cc2nc(CCCCNc3ccccn3)no2)CCCC1 [Example 4, [1-({3-[4-(pyridin-2-ylamino)butyl]-1,2,4-oxadiazol-5-yl}methyl)cyclopentyl]-acetic acid] | < 10 | ++ (Selectivity Ratio of 10-100 ++) | +++ (Selectivity Ratio >100 +++)
O=C(O)C(F)(F)F.O=C(O)CC(Cc1nc(CCCc2ccc3c(n2)NCCC3)no1)c1ccc2c(c1)OCO2 (stereo not drawn) [Example 16, 3-(1,3-benzodioxol-5-yl)-4-{3-[3-(5,6,7,8-tetrahydro-1,8-naphthyridin-2-yl)propyl]-1,2,4-oxadiazol-5-yl}butanoic acid] | < 10 | +++ (Selectivity Ratio >100 +++) | +++ (Selectivity Ratio >100 +++)
COc1ccc(C(CC(=O)O)Cc2nc(CCCCNc3ccccn3)no2)cc1.O=C(O)C(F)(F)F (stereo not drawn) [Example 23, 3-(4-methoxyphenyl)-4-{3-[4-(pyridin-2-ylamino)butyl]-1,2,4-oxadiazol-5-yl}butanoic acid] | < 10 | ++ (Selectivity Ratio of 10-100 ++) | +++ (Selectivity Ratio >100 +++)
COc1cccc(C(CC(=O)O)Cc2nc(CCCCNc3ccccn3)no2)c1.O=C(O)C(F)(F)F (stereo not drawn) [Example 21, 3-(3-methoxyphenyl)-4-{3-[4-(pyridin-2-ylamino)butyl]-1,2,4-oxadiazol-5-yl}butanoic acid] | < 10 | ++ (Selectivity Ratio of 10-100 ++) | +++ (Selectivity Ratio >100 +++)
O=C(O)CC(Cc1nc(CCCCNc2ccccn2)no1)c1ccc2c(c1)OCO2 (stereo not drawn) [Example 17, 3-(1,3-benzodioxol-5-yl)-4-{3-[4-(pyridin-2-ylamino)butyl]-1,2,4-oxadiazol-5-yl}butanoic acid] | < 10 | ++ (Selectivity Ratio of 10-100 ++) | +++ (Selectivity Ratio >100 +++)
O=C(O)C(F)(F)F.O=C(O)CC(Cc1nc(CCCc2ccc3c(n2)NCCC3)no1)c1cccc(C(F)(F)F)c1 (stereo not drawn) [Example 28, 4-{3-[3-(5,6,7,8-tetrahydro-1,8-naphthyridin-2-yl)propyl]-1,2,4-oxadiazol-5-yl}-3-[3-(trifluoromethyl)phenyl]butanoic acid] | < 10 | +++ (Selectivity Ratio >100 +++) | +++ (Selectivity Ratio >100 +++)

From US6933304B2, “Heteroarylalkanoic acids as integrin receptor antagonists” (Pharmacia Corporation, priority 2000, dated 2005)
